This passage reports IC50 results from patent US20120245137A1 (Zalicus Pharmaceuticals Ltd., priority 2009, published 2012).

What all share (type): cell-based
The target of experiment [1] is human α1H T-type channels (Homo sapiens, UniProt O95180). Description: T-type calcium channel block, whole cell patch clamp, α1H. The conditions noted are these: HEK cells stably expressing human α1H; mainly non-inactivated protocol; values above 10,000 nM represented as 10000. In outline: (§1)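 Cells are stable HEK 293 lines carrying human α1G or α1H channels, patched in whole-cell mode. Resting block comes from the non-inactivated pre-pulse; voltage-dependent block from the inactivated protocol.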
(In general: The patch-clamp technique gives a direct electrical read-out from membranes.)

The target in experiment [2] is N-type calcium channel subunits (α1B, α2δ, and β3a) (Homo sapiens, UniProt Q00975). Nature of the experiment: Block of Cav2.2 channel, whole cell voltage clamp, manual and PatchXpress. The conditions noted are these: Table 5; table follows Assay Example 3 (whole cell voltage clamp / PatchXpress); assay not given. Put shortly: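 Percent block taken as current amplitude ratio with versus without compound, applied in rising doses; IC50 fitted where one cell received multiple doses. Protocol: 50 ms pulses to +20 mV at 0.067 Hz from […] or −90 mV holding; P/n leak subtraction, no junction-potential correction; manual and PatchXpress recordings.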

The target of experiment [3] is human α1G T-type channels (Homo sapiens, UniProt O43497). Nature of the experiment: T-type calcium channel block, whole cell patch clamp, α1G. The settings on record: HEK cells stably expressing human α1G; mainly non-inactivated protocol; values above 10,000 nM represented as 10000. In outline:
as §1

N-type calcium channel subunits (α1B, α2δ, and β3a), sequence (Q00975 whole entry): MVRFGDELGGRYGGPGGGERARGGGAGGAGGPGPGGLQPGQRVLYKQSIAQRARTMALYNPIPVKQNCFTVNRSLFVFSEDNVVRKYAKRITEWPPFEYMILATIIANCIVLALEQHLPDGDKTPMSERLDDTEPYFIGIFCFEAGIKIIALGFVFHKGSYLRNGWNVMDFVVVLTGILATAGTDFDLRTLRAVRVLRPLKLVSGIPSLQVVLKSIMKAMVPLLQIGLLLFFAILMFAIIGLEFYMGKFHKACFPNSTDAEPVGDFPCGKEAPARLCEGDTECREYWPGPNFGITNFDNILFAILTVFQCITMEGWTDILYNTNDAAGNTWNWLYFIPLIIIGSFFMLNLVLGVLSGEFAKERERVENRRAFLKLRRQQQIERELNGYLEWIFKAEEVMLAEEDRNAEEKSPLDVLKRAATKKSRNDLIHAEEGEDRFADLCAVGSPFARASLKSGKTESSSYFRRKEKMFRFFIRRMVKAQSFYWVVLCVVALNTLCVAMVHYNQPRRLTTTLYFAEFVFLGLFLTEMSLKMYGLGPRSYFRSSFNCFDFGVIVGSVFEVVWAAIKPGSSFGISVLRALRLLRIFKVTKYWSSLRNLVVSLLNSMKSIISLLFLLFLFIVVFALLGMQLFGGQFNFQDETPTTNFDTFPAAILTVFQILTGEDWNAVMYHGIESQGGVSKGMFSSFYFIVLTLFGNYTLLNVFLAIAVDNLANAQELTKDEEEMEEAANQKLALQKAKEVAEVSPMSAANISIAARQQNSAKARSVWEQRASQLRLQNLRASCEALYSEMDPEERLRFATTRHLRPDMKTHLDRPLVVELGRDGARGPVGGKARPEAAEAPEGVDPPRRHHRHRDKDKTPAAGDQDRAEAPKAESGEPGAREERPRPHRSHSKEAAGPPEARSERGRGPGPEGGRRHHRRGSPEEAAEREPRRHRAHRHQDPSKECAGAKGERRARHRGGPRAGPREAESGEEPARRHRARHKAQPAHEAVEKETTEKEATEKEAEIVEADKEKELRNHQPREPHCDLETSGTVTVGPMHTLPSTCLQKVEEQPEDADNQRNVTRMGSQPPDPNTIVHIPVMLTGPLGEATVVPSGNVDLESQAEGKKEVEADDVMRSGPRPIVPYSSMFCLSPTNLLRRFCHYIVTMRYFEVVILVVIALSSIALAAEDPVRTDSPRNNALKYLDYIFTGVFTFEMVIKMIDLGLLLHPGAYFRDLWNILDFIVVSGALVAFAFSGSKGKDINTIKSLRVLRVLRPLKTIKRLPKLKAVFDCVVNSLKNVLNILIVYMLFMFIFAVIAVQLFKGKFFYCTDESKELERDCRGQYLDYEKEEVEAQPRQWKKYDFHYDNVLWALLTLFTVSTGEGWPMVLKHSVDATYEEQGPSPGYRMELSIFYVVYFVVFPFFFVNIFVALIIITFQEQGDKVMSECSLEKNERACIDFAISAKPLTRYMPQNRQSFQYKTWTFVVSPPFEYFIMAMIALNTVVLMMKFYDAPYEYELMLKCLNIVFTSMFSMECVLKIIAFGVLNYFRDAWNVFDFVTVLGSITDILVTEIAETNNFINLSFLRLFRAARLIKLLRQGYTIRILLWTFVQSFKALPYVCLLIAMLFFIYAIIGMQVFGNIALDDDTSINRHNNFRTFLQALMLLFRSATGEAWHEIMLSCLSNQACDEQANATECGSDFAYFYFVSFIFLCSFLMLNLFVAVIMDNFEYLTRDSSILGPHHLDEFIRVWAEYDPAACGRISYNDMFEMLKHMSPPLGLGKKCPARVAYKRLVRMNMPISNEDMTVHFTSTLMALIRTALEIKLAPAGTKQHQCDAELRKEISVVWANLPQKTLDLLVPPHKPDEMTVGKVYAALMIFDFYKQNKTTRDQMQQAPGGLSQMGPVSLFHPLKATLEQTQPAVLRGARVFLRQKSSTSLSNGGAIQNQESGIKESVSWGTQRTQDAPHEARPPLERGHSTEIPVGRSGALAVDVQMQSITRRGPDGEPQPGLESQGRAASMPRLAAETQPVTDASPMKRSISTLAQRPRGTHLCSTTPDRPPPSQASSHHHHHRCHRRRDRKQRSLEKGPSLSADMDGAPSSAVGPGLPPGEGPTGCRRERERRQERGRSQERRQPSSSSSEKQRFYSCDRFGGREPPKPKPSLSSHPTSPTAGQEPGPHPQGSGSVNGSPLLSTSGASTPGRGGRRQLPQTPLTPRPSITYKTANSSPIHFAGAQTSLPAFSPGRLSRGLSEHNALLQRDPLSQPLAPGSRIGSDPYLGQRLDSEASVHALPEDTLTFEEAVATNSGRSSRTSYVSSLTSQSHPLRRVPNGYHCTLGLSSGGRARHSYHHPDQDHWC
N-type calcium channel subunits (α1B, α2δ, and β3a), sequence (P54289 25-1103 partner): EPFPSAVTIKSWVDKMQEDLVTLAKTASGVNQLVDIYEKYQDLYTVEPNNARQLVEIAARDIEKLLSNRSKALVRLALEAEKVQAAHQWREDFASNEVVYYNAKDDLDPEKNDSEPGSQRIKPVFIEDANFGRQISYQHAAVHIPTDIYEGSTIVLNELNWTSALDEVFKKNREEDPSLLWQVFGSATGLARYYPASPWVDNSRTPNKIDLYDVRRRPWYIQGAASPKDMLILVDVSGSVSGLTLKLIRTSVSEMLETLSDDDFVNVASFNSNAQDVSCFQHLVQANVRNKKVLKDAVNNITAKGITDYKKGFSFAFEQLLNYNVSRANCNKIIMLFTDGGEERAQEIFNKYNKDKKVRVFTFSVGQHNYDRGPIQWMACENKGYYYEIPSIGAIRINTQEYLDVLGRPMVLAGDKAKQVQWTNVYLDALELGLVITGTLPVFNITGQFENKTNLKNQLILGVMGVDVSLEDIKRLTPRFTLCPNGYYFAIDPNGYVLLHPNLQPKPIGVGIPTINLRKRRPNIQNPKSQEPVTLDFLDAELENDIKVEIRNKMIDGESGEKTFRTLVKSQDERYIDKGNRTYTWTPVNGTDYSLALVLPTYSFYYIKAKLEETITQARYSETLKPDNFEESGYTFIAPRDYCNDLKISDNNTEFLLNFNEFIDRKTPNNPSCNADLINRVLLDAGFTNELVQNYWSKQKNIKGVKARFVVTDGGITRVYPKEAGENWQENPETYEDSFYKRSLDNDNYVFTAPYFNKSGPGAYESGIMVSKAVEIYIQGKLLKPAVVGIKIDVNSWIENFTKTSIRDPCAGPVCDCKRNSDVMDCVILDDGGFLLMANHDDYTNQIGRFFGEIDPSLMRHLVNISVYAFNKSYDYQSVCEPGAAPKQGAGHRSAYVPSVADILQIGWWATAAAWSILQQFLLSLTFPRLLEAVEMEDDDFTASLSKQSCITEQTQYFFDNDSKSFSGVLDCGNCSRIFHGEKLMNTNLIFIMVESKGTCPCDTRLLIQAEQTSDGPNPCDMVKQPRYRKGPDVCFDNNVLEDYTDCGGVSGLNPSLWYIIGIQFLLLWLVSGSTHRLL
N-type calcium channel subunits (α1B, α2δ, and β3a), sequence (P54284 whole entry partner): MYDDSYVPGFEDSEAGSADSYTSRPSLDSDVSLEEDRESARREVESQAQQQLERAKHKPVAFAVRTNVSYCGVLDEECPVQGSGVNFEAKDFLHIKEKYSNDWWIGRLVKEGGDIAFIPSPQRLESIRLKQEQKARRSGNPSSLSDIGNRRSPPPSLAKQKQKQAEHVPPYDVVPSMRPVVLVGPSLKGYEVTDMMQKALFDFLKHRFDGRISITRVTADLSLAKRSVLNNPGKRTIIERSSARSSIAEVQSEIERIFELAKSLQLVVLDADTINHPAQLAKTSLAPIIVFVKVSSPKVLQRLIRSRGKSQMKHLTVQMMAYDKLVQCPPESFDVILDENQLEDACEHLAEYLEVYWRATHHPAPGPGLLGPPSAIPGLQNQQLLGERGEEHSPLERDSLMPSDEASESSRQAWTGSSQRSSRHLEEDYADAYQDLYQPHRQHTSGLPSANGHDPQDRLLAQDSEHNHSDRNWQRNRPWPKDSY

On to `O=S(=O)(N[C@H]1CC[C@@](F)(S(=O)(=O)c2cccc(C(F)(F)F)c2)CC1)c1cccc(C(F)(F)F)c1` [Compound 300, N-((1S,4S)-4-fluoro-4-(3-(trifluoromethyl)phenylsulfonyl)cyclohexyl)-3-(trifluoromethyl) benzenesulfonamide], for which the IC50 (usually the concentration that inhibits the measured activity by half) worked out at 0.43 µM in experiment [1], 700 nM in experiment [2] and 0.28 µM in experiment [3].
In the same order, the values of `CC1(NC(=O)c2ccc(F)c(C(F)(F)F)c2)CCC(S(=O)(=O)c2cccc(C(F)(F)F)c2)CC1` (stereo not shown) [Compound 309, 4-fluoro-N-(1-methyl-4-(3-(trifluoromethyl)phenylsulfonyl)cyclohexyl)-3-(trifluoromethyl)benzamide] are greater than 10 µM, 1390 nM and 9.9 µM.
For `CC1(S(=O)(=O)c2cccc(C(F)(F)F)c2)CCC(NC(=O)c2ccn(CC(F)(F)F)n2)CC1` (stereo not drawn) [Compound 7, N-(4-methyl-4-(3-(trifluoromethyl)phenylsulfonyl)cyclohexyl)-l-(2,2,2-trifluoroethyl)-1H-pyrazole-3-carboxamide] the same measures were greater than 10 µM, 1580 nM and greater than 10 µM.
For `COc1cc(F)cc(C(=O)N[C@H]2CC[C@](F)(S(=O)(=O)c3cccc(C(F)(F)F)c3)CC2)c1` [Compound 82, 3-fluoro-N-((1R,4R)-4-fluoro-4-(3-(trifluoromethyl)phenylsulfonyl)cyclohexyl)-5-methoxybenzamide], the half-inhibitory concentration (IC50) in experiment [1] was 1.81 µM; in experiment [2] it was 3000 nM; in experiment [3] it was 7.49 µM.
For `CC(C)(C)NC(=O)CN[C@H]1C[C@H](CS(=O)(=O)c2cccc(C(F)(F)F)c2)C1` [Compound 352, N-tert-butyl-2-((1R,3R)-3-((3-(trifluoromethyl)phenylsulfonyl)methyl)cyclobutylamino)acetamide], the IC50 in experiment [1] amounted to 0.23 µM; in experiment [2] it was 3760 nM; in experiment [3] it was 0.64 µM.
For `CC(C)(C)NC(=O)CN[C@H]1CC[C@H](CS(=O)(=O)c2cccc(C(F)(F)F)c2)CC1` [Compound 114, N-tert-butyl-2-((1R,4R)-4-((3-(trifluoromethyl)phenylsulfonyl)methyl)cyclohexylamino)acetamide], the IC50 was greater than 10 µM in experiment [1], 510 nM in experiment [2] and greater than 10 µM in experiment [3].
As for `O=C(CN[C@H]1CC[C@@H](S(=O)(=O)c2cccc(C(F)(F)F)c2)CC1)NCC(F)(F)F` [Compound 48, N-(2,2,2-trifluoroethyl)-2-((1S,4S)-4-(3-(trifluoromethyl)phenylsulfonyl)cyclohexylamino)acetamide], the IC50 amounted to 2.33 µM in experiment [1], 1650 nM in experiment [2] and 1.43 µM in experiment [3].
In the same order, the values of “4-chloro-3-fluoro-N-((1R,4R)-4-(3- (trifluoromethyl)phenylsulfonyl) cyclohexyl)benzamide [Compound 123]” are 0.44 µM, 660 nM and 0.03 µM.
In the same order, the values of `O=C(NC[C@H]1C[C@H](S(=O)(=O)c2cccc(C(F)(F)F)c2)C1)c1ccnc(C(F)(F)F)c1` [Compound 361, 2-(trifluoromethyl)-N-(((1R,3R)-3-(3-(trifluoromethyl)phenylsulfonyl)cyclobutyl)methyl)isonicotinamide] are 0.2 µM, 460 nM and 1.62 µM.
Consider `O=C(N[C@H]1CC[C@@](F)(S(=O)(=O)c2cccc(C(F)(F)F)c2)CC1)c1ccnc(C(F)(F)F)n1` [Compound 268, N-((1S,4S)-4-fluoro-4-(3-(trifluoromethyl)phenylsulfonyl)cyclohexyl)-2-(trifluoromethyl)pyrimidine-4-carboxamide], for which the IC50 is 1.91 µM in experiment [1], 30 nM in experiment [2] and greater than 10 µM in experiment [3].
For the compound `CS(=O)(=O)c1cc(C(F)(F)F)cnc1C(=O)N[C@H]1CC[C@@](F)(S(=O)(=O)c2cc(F)cc(C(F)(F)F)c2)CC1` [Compound 331, N-((1S,4S)-4-fluoro-4-(3-fluoro-5-(trifluoromethyl)phenylsulfonyl)cyclohexyl)-3-(methylsulfonyl)-5-(trifluoromethyl)picolinamide], the IC50 in experiment [1] was determined as 1.51 µM; in experiment [2], 1290 nM; in experiment [3], 2.65 µM.
For `CS(=O)(=O)c1cc(Cl)ccc1C(=O)N[C@H]1CC[C@@](F)(S(=O)(=O)c2cccc(C(F)(F)F)c2)CC1` [Compound 262, 4-chloro-N-((1S,4S)-4-fluoro-4-(3-(trifluoromethyl)phenylsulfonyl)cyclohexyl)-2-(methylsulfonyl)benzamide] the same measures were 1.47 µM, 250 nM and 2.89 µM.
Turning to `CC1(NC(=O)CNCC(C)(C)S(=O)(=O)c2cccc(C(F)(F)F)c2)CCC1` [Compound 459, 2-(2-methyl-2-(3-(trifluoromethyl)phenylsulfonyl)propylamino)-N-(l-methylcyclobutyl)acetamide], the values for the IC50 in experiment [1] and in experiment [3] were greater than 10 µM and 0.82 µM, respectively.
For `CN(CCC(C)(C)S(=O)(=O)c1cccc(C(F)(F)F)c1)CC(=O)NC(C)(C)C` [Compound 516, N-tert-butyl-2-(methyl(3-methyl-3-(3-(trifluoromethyl)phenylsulfonyl)butyl)amino)acetamide] the same measures were greater than 10 µM and 0.62 µM.
Take `CC(C)(C(=O)Nc1ccc(Oc2ccccc2)cc1)S(=O)(=O)c1cccc(C(F)(F)F)c1` [Compound 487, 2-methyl-N-(4-phenoxyphenyl)-2-(3-(trifluoromethyl)phenylsulfonyl)propanamide]: the IC50 in experiment [1] turned out to be 3.31 µM; in experiment [3] it was 0.21 µM.
For `CC(C)(CNS(=O)(=O)c1ccc2ncsc2c1)S(=O)(=O)c1cccc(C(F)(F)F)c1` [Compound 501, N-(2-methyl-2-(3-(trifluoromethyl)phenylsulfonyl)propyl)benzo [d]thiazole-6-sulfonamide], the values for the IC50 in experiment [1] and in experiment [3] were greater than 10 µM and 0.42 µM, respectively.
For `CS(=O)(=O)c1ccc(C(=O)N[C@H]2CC[C@H](S(=O)(=O)c3cccc(C(F)(F)F)c3)CC2)c(Cl)c1` [Compound 122, 2-chloro-4-(methylsulfonyl)-N-((1R,4R)-4-(3-(trifluoromethyl)phenylsulfonyl)cyclohexyl)benzamide] the same measures were 0.99 µM and 0.69 µM.
With `CC(C)(CCNC(=O)c1cc(C(F)(F)F)nc(S(C)(=O)=O)c1)S(=O)(=O)c1cccc(C(F)(F)F)c1` [Compound 526, N-(3-methyl-3-(3-(trifluoromethyl)phenylsulfonyl)butyl)-2-(methylsulfonyl)-6-(trifluoromethyl)isonicotinamide], the IC50 in experiment [1] stood at 2.93 µM; in experiment [3], 0.24 µM.
In the same order, the values of `CC(C)(CCS(=O)(=O)c1cccc(OC(F)(F)F)c1)S(=O)(=O)c1cccc(C(F)(F)F)c1` [Compound 463, 1-(3-methyl-3-(3-(trifluoromethyl)phenylsulfonyl)butylsulfonyl)-3-(trifluoromethoxy)benzene] are greater than 10 µM and 0.35 µM.
In the same order, the values of `COc1cc(C(=O)N(C)CCC(C)(C)S(=O)(=O)c2cccc(C(F)(F)F)c2)cc(Cl)n1` [Compound 512, 2-chloro-6-methoxy-N-methyl-N-(3-methyl-3-(3-(trifluoromethyl)phenylsulfonyl)butyl) isonicotinamide] are greater than 10 µM and 0.33 µM.
